Experimental data published in patent publication US20220169680A1 (priority 2018, published 2022).

Tested on: A549 cells
Format: cell-based

| Sequence | ability to carry small RNA into cells compared with the transfection reagent RNAiMax group, qPCR | ability to carry small RNA (PGY-sRNA-26) into cells, qPCR |
| --- | --- | --- |
| DRFFFKCFFRRFKFGLKRGPST [Jilin-2004(H5N1)-M2-44-65 mut6] | stronger than the transfection reagent RNAiMax group |  |
| DRLFFKCIYRRLKYGLII [Jilin-2004(H5N1)-M2-44-61 mut16] | stronger than the transfection reagent RNAiMax group |  |
| DRLFFKCIYRRRKRGLKR [Jilin-2004(H5N1)-M2-44-61 mut12] | stronger than the transfection reagent RNAiMax group |  |
| RLFFKCIYSRLKYGLKRG [Jilin-2004(H5N1)-M2-45-62 mut53] | stronger than the transfection reagent RNAiMax group |  |
| DRLFFKIIYRRLKYGLKR [Jilin-2004(H5N1)-M2-44-61 mut8] | stronger than the transfection reagent RNAiMax group |  |
| DRKRRKCKYRRKKYGRKR [Jilin-2004(H5N1)-M2-44-61 mut14] | stronger than the transfection reagent RNAiMax group |  |
| DRFFFKCIFRRLKFGLKRGPST [Jilin-2004(H5N1)-M2-44-65 mut5] | stronger than the transfection reagent RNAiMax group |  |
| RRFFFKCFFRRFKFGLKRGPST [Jilin-2004(H5N1)-M2-44-65 mut7] | stronger than the transfection reagent RNAiMax group |  |
| RLFFKCIYRRLKYGAKRG [Jilin-2004(H5N1)-M2-45-62 mut59] | stronger than the transfection reagent RNAiMax group |  |
| MSLLTEVETPTRNGWECRCSDSSD [Jilin-2004(H5N1)-M2-1-24] |  | Only the polypeptide Jilin-2004(H5N1)-M2-45-62 had the ability to carry small RNA into the cells |
| DRFFFKCIYRRLKYGLKRRPST [Jilin-2004(H5N1)-M2-44-65 mut2] | stronger than the transfection reagent RNAiMax group |  |
| KRGPSTEGVPESMREEYRQEQQS [Jilin-2004(H5N1)-M2-60-82] |  | Only the polypeptide Jilin-2004(H5N1)-M2-45-62 had the ability to carry small RNA into the cells |
| DRLFFICIYRRLKYGLKR [Jilin-2004(H5N1)-M2-44-61 mut6] | stronger than the transfection reagent RNAiMax group |  |
| PLVVAASIIGILHLILWIL [Jilin-2004(H5N1)-M2-25-43] |  | Only the polypeptide Jilin-2004(H5N1)-M2-45-62 had the ability to carry small RNA into the cells |
| RRLFFKCIYRRLKYGLKRGPST [Jilin-2004(H5N1)-M2-44-65 mut15] | stronger than the transfection reagent RNAiMax group |  |
| RLFFRCIYRRLKYGLKRG [Jilin-2004(H5N1)-M2-45-62 mut1] | stronger than the transfection reagent RNAiMax group |  |
| DRFFFKCIYRRLKYGLKRGPST [Jilin-2004(H5N1)-M2-44-65 mut1] | stronger than the transfection reagent RNAiMax group |  |
| RFFFKCFYRRLKYGLKRG [Jilin-2004(H5N1)-M2-45-62 mut8] | stronger than the transfection reagent RNAiMax group |  |
| RLFFKCIYRRLTYGLKRG [Jilin-2004(H5N1)-M2-45-62 mut56] | stronger than the transfection reagent RNAiMax group |  |
| RRLFFKCIYRRLKYGLKR [Jilin-2004(H5N1)-M2-44-61 mut1] | stronger than the transfection reagent RNAiMax group |  |
| RAFFKCIYRRLKYGLKRG [Jilin-2004(H5N1)-M2-45-62 mut46] | stronger than the transfection reagent RNAiMax group |  |
| DRLFFRRIYRRLKYGLKRGPST [Jilin-2004(H5N1)-M2-44-65 mut23] | stronger than the transfection reagent RNAiMax group |  |
| DRRFFKCIYRRLKYGLKR [Jilin-2004(H5N1)-M2-44-61 mut4] | stronger than the transfection reagent RNAiMax group |  |
| RLFFKCIKRRLKYGLKRG [Jilin-2004(H5N1)-M2-45-62 mut52] | stronger than the transfection reagent RNAiMax group |  |
| DRRRRKCRRRRRKYGRKR [Jilin-2004(H5N1)-M2-44-61 mut10] | stronger than the transfection reagent RNAiMax group |  |
| RLFFKCIYRRAKYGLKRG [Jilin-2004(H5N1)-M2-45-62 mut55] | stronger than the transfection reagent RNAiMax group |  |
| DRFFFKRIFRRLKFRLKRRPST [Jilin-2004(H5N1)-M2-44-65 mut11] | stronger than the transfection reagent RNAiMax group |  |
| RLIFKCIYRRLKYGLKRG [Jilin-2004(H5N1)-M2-45-62 mut47] | stronger than the transfection reagent RNAiMax group |  |

Tested on: A549 cells
Format: cell-based
Remark: another data set of the same source

| Sequence | cell entry signal / cell entry properties | cell-penetrating peptide function compared with the parent polypeptide | cell entry at all time points |
| --- | --- | --- | --- |
| KYGLKRGPSTEGVPESMR [FITC-Jilin-2004(H5N1)-M2-56-73] | did not show cell entry properties |  |  |
| DRKRRKCKYRRKKYGRKR [Jilin-2004(H5N1)-M2-44-61 mut14] |  | stronger than that of the parent Jilin-2004(H5N1)-M2-44-61 polypeptide |  |
| LKRGPSTEGVPESMREEY [FITC-Jilin-2004(H5N1)-M2-59-76] | did not show cell entry properties |  |  |
| DRFFFKRIFRRLKYRLKRRPST [Jilin-2004(H5N1)-M2-44-65 mut10] |  | stronger than that of the parent Jilin-2004(H5N1)-M2-44-65 polypeptide |  |
| GPSTEGVPESMREEYRQE [FITC-Jilin-2004(H5N1)-M2-62-79] | did not show cell entry properties |  |  |
| MSLLTEVETPTRNGWECRCSDSSD [Jilin-2004(H5N1)-M2-1-24] | no cell entry signal was detected |  |  |
| DRLFFKCIYRRLKYGRKR [Jilin-2004(H5N1)-M2-44-61 mut13] |  | stronger than that of the parent Jilin-2004(H5N1)-M2-44-61 polypeptide |  |
| RRLKYGLKRGPSTEGVPE [FITC-Jilin-2004(H5N1)-M2-53-70] | did not show cell entry properties |  |  |
| DRFFFKCFYRRLK [Jilin-2004(H5N1)-M2-44-56 mut9] |  | enhanced compared to the parent polypeptide |  |
| PLVVAASIIGILHLILWIL [Jilin-2004(H5N1)-M2-25-43] | no cell entry signal was detected |  |  |
| ERGLQRRRFVQNALN [NC, reference compound] |  |  | no entry of polypeptides was observed |
| DRLFFRRIYRRLRYRLRRRPST [Jilin-2004(H5N1)-M2-44-65 mut24] |  | stronger than that of the parent Jilin-2004(H5N1)-M2-44-65 polypeptide |  |
| TEGVPESMREEYRQEQQS [FITC-Jilin-2004(H5N1)-M2-65-82] | did not show cell entry properties |  |  |

Tested on: A549 cells
Format: cell-based
Remark: another data set of the same source

| Sequence | cell-penetrating peptide function compared with the parent polypeptide (confocal imaging) |
| --- | --- |
| RLFFKIIYRRLKYGLKRG [Jilin-2004(H5N1)-M2-45-62 mut50] | stronger than that of the parent Jilin-2004(H5N1)-M2-45-62 polypeptide |
